≈ marks a conversion by molar mass, not a printed value. Where two headings read alike, the source gives them in different places.

The target in data set [1] is α-glucosidase from Saccharomyces cerevisiae (Saccharomyces cerevisiae, UniProt P53341). Description: biochemical. As to the method:
The α-glucosidase inhibitory effects of diphenylquinoxaline-6-carbohydrazide hybrids 7a–o were determined by previously reported method. […] Later on, 25 μL of the substrate (p-nitrophenyl glucopyranoside, 4 mM) was added to each well of the plate, and incubation was continued for 20 min at 37 ^◦C.

For data set [2], the target named is α-glucosidase (Saccharomyces cerevisiae, UniProt P53341). Description: Enzyme kinetic studies (Lineweaver–Burk plot, secondary plot). The class given is biochemical. The procedure:
A Lineweaver–Burk plot was generated to identify the type of inhibition and the Michaelis–Menten constant (Km) value was determined from the plot between reciprocal of the substrate concentration (1/[S]) and reciprocal of enzyme rate (1/V) over various inhibitor concentrations. The experimental inhibitor constant (Ki) value was constructed by secondary plots of the inhibitor concentration [I] versus Km.

The target in data set [3] is α-glucosidase. Details: method as in doi:10.1039/C9NJ02580D. The note with it: compound A versus standard acarbose; cited from earlier work.
Data set [4] has as its target α-glucosidase. Details: method as in PMID 24398385. The note with it: cited from earlier work.

Chain of α-glucosidase from Saccharomyces cerevisiae (P53341 whole entry): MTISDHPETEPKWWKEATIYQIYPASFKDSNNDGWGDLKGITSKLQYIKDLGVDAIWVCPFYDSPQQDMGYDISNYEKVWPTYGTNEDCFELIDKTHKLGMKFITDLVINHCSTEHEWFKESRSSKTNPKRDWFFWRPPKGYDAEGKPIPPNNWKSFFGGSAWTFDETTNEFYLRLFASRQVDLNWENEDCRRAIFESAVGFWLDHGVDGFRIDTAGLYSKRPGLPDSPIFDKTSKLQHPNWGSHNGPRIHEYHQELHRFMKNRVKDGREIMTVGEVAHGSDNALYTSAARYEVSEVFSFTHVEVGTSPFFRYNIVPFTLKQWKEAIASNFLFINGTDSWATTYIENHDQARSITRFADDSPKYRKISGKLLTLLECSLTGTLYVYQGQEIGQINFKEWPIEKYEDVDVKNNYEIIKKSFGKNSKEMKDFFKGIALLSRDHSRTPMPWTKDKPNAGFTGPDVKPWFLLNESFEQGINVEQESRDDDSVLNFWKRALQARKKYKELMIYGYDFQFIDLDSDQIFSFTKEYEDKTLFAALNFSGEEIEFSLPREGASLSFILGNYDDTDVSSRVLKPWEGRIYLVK
Chain of α-glucosidase (Saccharomyces cerevisiae, UniProt P53341) (P53341 whole entry): as above

`O=C(NN=Cc1ccccc1)c1ccc2nc(-c3ccccc3)c(-c3ccccc3)nc2c1` [7a, N'-benzylidene-2,3-diphenylquinoxaline-6-carbohydrazide]: the melting point was 230 to 232 °C. For the same compound, the midpoint of inhibition in data set [1], the IC50, lay at 155 ± 3 µM.

As to `O=C(NN=Cc1ccccc1[N+](=O)[O-])c1ccc2nc(-c3ccccc3)c(-c3ccccc3)nc2c1` [7b, N'-(2-nitrobenzylidene)-2,3-diphenylquinoxaline-6-carbohydrazide], the melting point is > 250 °C. The same compound yielded an IC50 in data set [1] of 175 ± 5.9 µM.

`O=C(NN=Cc1cccc([N+](=O)[O-])c1)c1ccc2nc(-c3ccccc3)c(-c3ccccc3)nc2c1` [7c, N'-(3-nitrobenzylidene)-2,3-diphenylquinoxaline-6-carbohydrazide]: the melting point is > 250 °C. The compound also displayed an IC50 in data set [1] of 279 ± 5.8 µM.

Consider `O=C(NN=Cc1ccc([N+](=O)[O-])cc1)c1ccc2nc(-c3ccccc3)c(-c3ccccc3)nc2c1` [7d, N'-(4-nitrobenzylidene)-2,3-diphenylquinoxaline-6-carbohydrazide], for which the melting point is > 250 °C. Also, the IC50 in data set [1] came to 240 ± 7.5 µM.

Take `O=C(NN=Cc1cccc(F)c1)c1ccc2nc(-c3ccccc3)c(-c3ccccc3)nc2c1` [7e, N'-(3-fluorobenzylidene)-2,3-diphenylquinoxaline-6-carbohydrazide]: the melting point is > 250 °C. Besides, in data set [2] (Lineweaver–Burk plot, Km increased, Vmax unchanged), the type of inhibition entry is “competitive”. Besides, the Ki in data set [2] (secondary plot of Km versus inhibitor concentration (0, 30, 70 and 110 µM), read-out: inhibition constant Ki) was determined as 107 µM. The IC50 in data set [1] (in vitro α-glucosidase inhibition, substrate p-nitrophenyl glucopyranoside, mean ± SEM, at least three experiments, read-out: IC50) is 111 ± 6 µM.

The compound `O=C(NN=Cc1ccc(Cl)cc1)c1ccc2nc(-c3ccccc3)c(-c3ccccc3)nc2c1` [7f, N'-(4-chlorobenzylidene)-2,3-diphenylquinoxaline-6-carbohydrazide] displayed a melting point of 234 to 238 °C. In addition, the midpoint of inhibition in data set [1], the IC50, lay at 260 ± 4.5 µM.

Regarding `COc1ccc(C=NNC(=O)c2ccc3nc(-c4ccccc4)c(-c4ccccc4)nc3c2)cc1` [7g, N'-(4-methoxybenzylidene)-2,3-diphenylquinoxaline-6-carbohydrazide], the melting point was > 250 °C. In data set [1], this compound returned an IC50 of 320 ± 4.9 µM.

Turning to `COc1cccc(C=NNC(=O)c2ccc3nc(-c4ccccc4)c(-c4ccccc4)nc3c2)c1[N+](=O)[O-]` [7h, N'-(3-methoxy-2-nitrobenzylidene)-2,3-diphenylquinoxaline-6-carbohydrazide], the melting point is > 250 °C. In data set [1], this compound yielded an IC50 of 305 ± 7.2 µM.

With `O=C(NN=Cc1cc([N+](=O)[O-])ccc1Cl)c1ccc2nc(-c3ccccc3)c(-c3ccccc3)nc2c1` [7i, N'-(2-chloro-5-nitrobenzylidene)-2,3-diphenylquinoxaline-6-carbohydrazide], the melting point was > 250 °C. The compound also yielded a 50% inhibitory concentration (IC50) in data set [1] of 231 ± 5.5 µM.

For `COc1cc(C=NNC(=O)c2ccc3nc(-c4ccccc4)c(-c4ccccc4)nc3c2)ccc1O` [7j, N'-(4-hydroxy-3-methoxybenzylidene)-2,3-diphenylquinoxaline-6-carbohydrazide], the melting point is > 250 °C. Further, in data set [1], the IC50 was 358 ± 6.1 µM.

`COc1cc(/C=N/NC(=O)c2ccc3nc(-c4ccccc4)c(-c4ccccc4)nc3c2)cc(OC)c1OC` [7k, (E)-2,3-diphenyl-N'-(3,4,5-trimethoxybenzylidene)quinoxaline-6-carbohydrazide]: the IC50 in data set [1] is > 750 µM.

Regarding `O=C(NN=Cc1cccc(Oc2ccccc2)c1)c1ccc2nc(-c3ccccc3)c(-c3ccccc3)nc2c1` [7l, N'-(3-phenoxybenzylidene)-2,3-diphenylquinoxaline-6-carbohydrazide], the melting point was > 250 °C. In data set [1], this compound showed an IC50 of 453 ± 4.7 µM.

Take `O=C(NN=Cc1cc2c(cc1[N+](=O)[O-])OCO2)c1ccc2nc(-c3ccccc3)c(-c3ccccc3)nc2c1` [7m, N'-((6-nitrobenzo[d][1,3]dioxol-5-yl)methylene)-2,3-diphenylquinoxaline-6-carbohydrazide]: the melting point is > 250 °C. Further, the IC50 in data set [1] was 353.7 ± 3.5 µM.

Consider `O=C(NN=Cc1cccc2ccccc12)c1ccc2nc(-c3ccccc3)c(-c3ccccc3)nc2c1` [7n, N'-(naphthalen-1-ylmethylene)-2,3-diphenylquinoxaline-6-carbohydrazide], for which the melting point is > 250 °C. In addition, in data set [1], the IC50 worked out at 388 ± 6.5 µM.

In turn, `O=C(NN=Cc1cccs1)c1ccc2nc(-c3ccccc3)c(-c3ccccc3)nc2c1` [7o, 2,3-diphenyl-N'-(thiophen-2-ylmethylene)quinoxaline-6-carbohydrazide] returned a melting point of 242 to 246 °C. In data set [1], the IC50 came out at 145 ± 5 µM.

With `Cc1nc2ccccc2n(CC(=O)N/N=C/c2ccc(OCCc3cn(CN4CCOCC4)nn3)cc2)c1=O` [compound A], in data set [3], the IC50 was 21.92 µg/mL (≈ 41.3 µM).

For the compound `O=C(N/N=C1/c2ccccc2-c2nc3ccccc3nc21)c1ccc(Br)cc1` [compound B], in data set [4] (compound B versus standard acarbose), the IC50 is 22.67 ± 0.1 µM.

Consider `Cc1ccc(NC(=O)Cn2c(=O)c(C)nc3ccccc32)c([N+](=O)[O-])c1` [compound C], for which the IC50 in data set [4] (compound C versus standard acarbose) was 83.8 ± 0.89 µM.

Usually melting point stands for the temperature, or range, at which the solid turns liquid. Usually IC50 stands for the concentration that gives 50% inhibition. The term Ki denotes the dissociation constant of the complex between target and ligand, obtained from inhibition or displacement.

The values above are taken from publication PMC9341091, “Design, synthesis, and molecular docking studies of diphenylquinoxaline-6-carbohydrazide hybrids as potent α-glucosidase inhibitors” (BMC Chemistry, 2022).
